Legend:
[1] = biological target: T1, Mitogen-activated protein kinase 1 (Homo sapiens, UniProt P28482); assay: Binding affinity to activated Erk2 (unknown origin) by TdF assay
[2] = biological target: T1, Mitogen-activated protein kinase 1; assay: Binding affinity to non-phosphorylated Erk2 (unknown origin) by TdF assay
[3] = biological target: T1, Mitogen-activated protein kinase 1; assay: ATP competitive inhibition of activated Erk2 (unknown origin) by biochemical assay
[4] = biological target: T1, Mitogen-activated protein kinase 1; assay: Inhibition of activated Erk2 (unknown origin) by biochemical assay
[5] = biological target: T1, Mitogen-activated protein kinase 1; assay: Inhibition of non-activated Erk2 (unknown origin) using activating Mek1 and peptide substrate by coupled Erk2 assay

T1 sequence (P28482 whole entry): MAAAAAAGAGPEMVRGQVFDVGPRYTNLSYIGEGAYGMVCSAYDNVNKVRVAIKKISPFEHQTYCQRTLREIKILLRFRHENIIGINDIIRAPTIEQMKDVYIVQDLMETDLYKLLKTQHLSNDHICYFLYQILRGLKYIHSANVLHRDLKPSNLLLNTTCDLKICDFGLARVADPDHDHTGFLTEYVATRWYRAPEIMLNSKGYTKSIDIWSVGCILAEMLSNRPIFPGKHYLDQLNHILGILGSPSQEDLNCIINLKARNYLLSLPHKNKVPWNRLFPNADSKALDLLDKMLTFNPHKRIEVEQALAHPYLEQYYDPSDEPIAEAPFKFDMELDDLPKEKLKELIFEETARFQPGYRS

SMILES	IC50 ([4]; read-out: IC50) [nM]	IC50 [5] [nM]	further results
CC(=O)c1ccc(N2CCN(C(=O)CN3CCC(C(=O)Nc4ccc(O)cc4)C3)CC2)cc1 (stereo not drawn)	–	–	Kd [1]: 1900 nM; Kd [2]: 1060 nM; IC50 [3]: 15200 nM
O=C(Nc1ccc(O)c(Cl)c1)[C@@H]1CCN(CC(=O)N2CCN(c3ccc(-c4ccc(F)cc4)cc3)CC2)C1	100000	19000	–
O=C(Nc1ccc(O)c(Cl)c1)[C@@H]1CCN(CC(=O)N2CCN(c3ccc(-c4cccc(F)c4)cc3)CC2)C1	–	2200	IC50 [4]: Not Active
COc1ccc(-c2ccc(N3CCN(C(=O)CN4CC[C@@H](C(=O)Nc5ccc(O)c(Cl)c5)C4)CC3)cc2)cc1	50000	2300	–
O=C(Nc1ccc(O)c(C(F)(F)F)c1)[C@@H]1CCN(CC(=O)N2CCN(c3ccc(-c4ncccn4)cc3)CC2)C1	100	5	–
O=C(Nc1ccc(O)c(C2CC2)c1)[C@@H]1CCN(CC(=O)N2CCN(c3ccc(-c4ncccn4)cc3)CC2)C1	1760	36	–
CC(C)c1cc(NC(=O)[C@@H]2CCN(CC(=O)N3CCN(c4ccc(-c5ncccn5)cc4)CC3)C2)ccc1O	1800	73	–
CC(=O)c1ccc(N2CCN(C(=O)CN3CC[C@@H](C(=O)Nc4ccc(O)cc4)C3)CC2)cc1	6000	–	–

More lines, main results first:

IC50 ([4]; read-out: IC50) [nM]	IC50 [5] [nM]	SMILES	further results
–	1200	O=C(Nc1ccc(O)c(Cl)c1)[C@@H]1CCN(CC(=O)N2CCN(c3ccc(-c4ccccc4F)cc3)CC2)C1	IC50 [4]: Not Active
20000	2500	O=C(Nc1ccc(O)c(Cl)c1)[C@@H]1CCN(CC(=O)N2CCN(c3ccc(-c4cccs4)cc3)CC2)C1	–
12000	1000	O=C(Nc1ccc(O)c(Cl)c1)[C@@H]1CCN(CC(=O)N2CCN(c3ccc(-c4cnco4)cc3)CC2)C1	–
410	20	O=C(Nc1ccc(O)c(Cl)c1)[C@@H]1CCN(CC(=O)N2CCN(c3ccc(-c4ncccn4)cc3)CC2)C1	–
100	5	CCc1cnc(-c2ccc(N3CCN(C(=O)CN4CC[C@@H](C(=O)Nc5ccc(O)c(Cl)c5)C4)CC3)cc2)nc1	–
1760	36	O=C(Nc1ccc(O)c(Cl)c1)[C@@H]1CCN(CC(=O)N2CCN(c3ccc(-c4ncc(F)cn4)cc3)CC2)C1	–
1800	73	O=C(Nc1ccc(O)c(Cl)c1)[C@@H]1CCN(CC(=O)N2CCN(c3ccc(-c4cncnc4)cc3)CC2)C1	–
2670	71	COc1ncc(-c2ccc(N3CCN(C(=O)CN4CC[C@@H](C(=O)Nc5ccc(O)c(Cl)c5)C4)CC3)cc2)cn1	–
130	14	O=C(Nc1ccc(O)c(Cl)c1)[C@@H]1CCN(CC(=O)N2CCN(c3ccc(-c4cnccn4)cc3)CC2)C1	–
9340	300	O=C(Nc1ccc(O)c(Cl)c1)[C@@H]1CCN(CC(=O)N2CCN(c3ccc(-c4nccs4)cc3)CC2)C1	–
2670	71	O=C(Nc1ccc(O)c(F)c1)[C@@H]1CCN(CC(=O)N2CCN(c3ccc(-c4ncccn4)cc3)CC2)C1	–
